This data set can be described thus: Solubility assessment in water (aqueous solubility). The following applies: thermodynamic from solid. Type of data set: physicochemical. The protocol:
Solubility assessment: A preweighed amount of powder of a salt was treated with water to target a nominal concentration of 50 mg/mL. If a clear solution was obtained, then the solubility was noted as ≧50 mg/mL. If a suspension was obtained, it was sonicated for 1 min, followed by vortex mixing for 30 sec, and centrifuged for 5 min. The mother liquor was siphoned off and assayed for content against a standard of the free base by HPLC.

On to `CCN1CCN(S(=O)(=O)c2cc([N+](=O)[O-])ccc2Oc2cc(Cl)cc(Cl)c2)CC1` [Cmpd 6, 1-(2-(3,5-dichlorophenoxy)-5-nitrophenylsulfonyl)-4-ethylpiperazine], for which the solubility (in general, the concentration that dissolves in the medium under given conditions) at 1.5 min is, setting by setting: (Camsylate salt) 250 µg/mL; (Free base) under 10 µg/mL; (HBr salt) 1000 µg/mL; (HCl salt) 1590 µg/mL; (Mesylate salt) 10000 µg/mL; (Phosphate salt) 1660 µg/mL. For the same compound, the solubility at 1.5 min reads like this: (Sulfate salt) 600 µg/mL; (Tosylate salt) 300 µg/mL.
Regarding `N#Cc1ccc(Sc2cc(Cl)cc(Cl)c2)c(S(=O)(=O)N2CCN(C3CCCC3)CC2)c1` [Cmpd 5, 3-(4-cyclopentylpiperazin-1-ylsulfonyl)-4-(3,5-dichlorophenylthio)-benzonitrile], the solubility at 1.5 min is under 10 µg/mL (Free base); 110 µg/mL (HCl salt); 230 µg/mL (Mesylate salt); 10000 µg/mL (Phosphate salt); 1200 µg/mL (Sulfate salt).
On to `CCN1CCN(S(=O)(=O)c2cc(C#N)ccc2Oc2cc(Cl)cc(Cl)c2)CC1` [Cmpd 2, 4-(3,5-dichlorophenoxy)-3-(4-ethylpiperazin-1-ylsulfonyl)benzonitrile], for which the solubility at 1.5 min reads like this: (Free base) under 10 µg/mL; (Mesylate salt) 270 µg/mL; (Phosphate salt) 120 µg/mL; (Sulfate salt) 230 µg/mL.
As for `CC(C)N1CCN(S(=O)(=O)c2cc(C#N)ccc2Sc2cc(Cl)cc(Cl)c2)CC1` [Cmpd 4, 4-(3,5-dichlorophenylthio)-3-(4-isopropylpiperazin-1-ylsulfonyl)benzonitrile], the solubility at 1.5 min was 240 µg/mL (Camsylate salt); under 10 µg/mL (Free base); 200 µg/mL (HBr salt); 800 µg/mL (HCl salt); 23000 µg/mL (Mesylate salt); 1100 µg/mL (Sulfate salt).
With `N#Cc1ccc(Oc2cc(Cl)cc(Cl)c2)c(S(=O)(=O)N2CCC(NC(=O)NCCN3CCOCC3)CC2)c1` [Cmpd 7, 1-(1-(5-cyano-2-(3,5-dichlorophenoxy)phenylsulfonyl)piperidin-4-yl)-3-(2-morpholinoethyl)urea], the solubility at 1.5 min is, setting by setting: (Citrate salt) 800 µg/mL; (Free base) under 10 µg/mL; (HCl salt) 3670 µg/mL; (Mesylate salt) 3810 µg/mL; (Phosphate salt) 2910 µg/mL; (Sulfate salt) 2350 µg/mL.
For the compound `CN1CCN(CCNC(=O)NC2CCN(S(=O)(=O)c3cc(C#N)ccc3Oc3cc(Cl)cc(Cl)c3)CC2)CC1` [Cmpd 8, 1-(1-(5-cyano-2-(3,5-dichlorophenoxy)phenylsulfonyl)piperidin-4-yl)-3-(2-(4-methylpiperazin-1-yl)ethyl)urea], the solubility at 1.5 min runs as follows: (Free base) under 10 µg/mL; (HCl salt) 1400 µg/mL; (Mesylate salt) 10900 µg/mL; (Phosphate salt) 2400 µg/mL; (Sulfate salt) 580 µg/mL.
Turning to `CN1CCN(S(=O)(=O)c2cc(C#N)ccc2Sc2cc(Cl)cc(Cl)c2)CC1` [Cmpd 1, 4-(3,5-dichlorophenylthio)-3-(4-methylpiperazin-1-ylsulfonyl)benzonitrile], the solubility at 1.5 min runs as follows: (Free base) under 10 µg/mL; (HBr salt) 400 µg/mL; (HCl salt) 1360 µg/mL; (Mesylate salt) 7260 µg/mL; (Phosphate salt) 1700 µg/mL; (Sulfate salt) 790 µg/mL. For the same compound, where the note is “Tartrate salt”, the solubility at 1.5 min is 450 µg/mL.
In the case of `CCN1CCN(S(=O)(=O)c2cc(C#N)ccc2Oc2cc(C)cc(C)c2)CC1` [Cmpd 3, 4-(3,5-dimethylphenoxy)-3-(4-ethylpiperazin-1-ylsulfonyl)benzonitrile], the solubility at 1.5 min was 80 µg/mL (Camsylate salt); under 10 µg/mL (Free base); 30 µg/mL (HBr salt); 330 µg/mL (HCl salt); 200 µg/mL (Mesylate salt).
